{"source": "patent US11034839B2", "about": "“Compounds, linked with haptens, for the detection of senescent cells” (THE UNIVERSITY OF MANCHESTER, priority 2016, dated 2021)", "key": {"[1]": {"test_system": "human diploid lung fibroblasts (DLFs) and human bronchial epithelial cells (HBEC-Cdc6 Tet-ON)", "experiment": "IHC staining versus proliferation markers (Ki67 and BrdU incorporation)", "type": "cell-based", "conditions": "FIG. 16"}, "senescent cells": {"test_system": "senescent cells", "experiment": "Flow cytometry analysis for detection of senescent cells in cell culture", "type": "cell-based", "conditions": "HIC assay adapted to flow cytometry, FIG. 10", "description": "In inventive example 7 the derivative LG13 was used to detect lipofuscin rich cells in cell aspirations or cell cultures by flow cytometry analysis.\n• 1. Cells harvested from culture are fixed in EtOH 70% at 4° C. • 2. Centrifuge at 1200 rpm for 5 min at RT. • 3. Wash ×1 in 5 ml PBS at RT. • 4. Centrifuge at 1200 rpm for 5 min at RT. • 5. Incubate in 0.1% Triton X/PBS for 15 min at RT. • 6. Centrifuge at 1200 rpm for 5 min at RT. • 7. Wash ×1 EtOH 50% for 5 min at RT • 8. Centrifuge at 1200 rpm for 5 min at RT. • 9. Wash ×1 EtOH 70% for 5 min at RT. • 10. Centrifuge at 1200 rpm for 5 min at RT. • 11. Cover cell pellet with compound LG13 and incubate for 8 min at RT. • 12. Centrifuge at 1200 rpm for 5 min at RT. • 13. Wash with EtOH 50% and centrifuge at 1200 rpm for 5 min at RT, repeat ×3. • 14. Wash ×1 in PBS. • 15. Centrifuge at 1200 rpm for 5 min at RT. • 16. Incubate with the primary anti-biotin antibody diluted 1:400 in PBS ([Hyb-8] ab201341, Abcam) for 60 min at 37° C. • 17. Wash ×1 with PBS. • 18. Centrifuge at 1200 rpm for 5 min at RT. • 19. Incubate with secondary antibody, goat anti-mouse 568 Alexa Fluor conjugated, diluted 1:100 in PBS [Thermo Fisher Scientific (Cat no: A-11004)] for 20-30 min in dark and on ice. • 20. Wash ×1 with PBS. • 21. Centrifuge at 1200 rpm for 5 min at RT."}, "[2]": {"test_system": "senescent cells in cellular systems, mouse models and human clinical samples", "experiment": "Double staining with Ki67, p16INK4A or p21WAF1/Cip1", "description": "• 1. Compound (LG13) • 2. 100% ethanol (100% EtOH) • 3. Parafilm • 4. Fritted glass filter of medium porosity • 5. Airtight Dye Container 2.2.2 General Procedure: • 1. Dissolve 40 mg of the compound (LG13) in 7.4 ml 100% EtOH in a glass beaker and cover it with parafilm. • 2. Incubate at 56° C. in a waterbath for 120 min until the compound is completely dissolved. 2.3. General Method for Compound (LG13) Staining 2.3.1 Materials: • 1. Xylene • 2. […] Syringe • 4. 13 mm filter, membrane 0.22 μm • 5. Soft paper (dry or dipped in ethanol) • 6. Anti-biotin antibody ([Hyb-8] ab201341, Abcam) • 7. Ultravision Quanto Detection System HRP DAB kit (Cat no: TL-125-QHD) • 8. Glycerol (Sigma-Aldrich) • 9. Tris Buffered Saline (TBS; 10×): 1.5 M NaCl, 0.1 M Tris-HCl, pH 7.4. Store at 4° C. • 10. 0.5% Triton X/TBS: 0.5 ml Triton X diluted in 99.5 ml TBS • 11. Mounting media Glycergel (DakoCytomation). • 12. Light Microscope • 13. Anti-p21^WAF1/Cip1 mouse primary antibody [(F-5)(sc-6246) Santa-Cruz] • 14. Anti-p16^INK4A mouse primary antibody [(sc-74401) Santa-Cruz] • 15. Anti-Ki67 rabbit polyclonal antibody [ab16667, Abcam] • 16. Secondary goat anti-mouse antibody Alexa Fluor 568 conjugated [Thermo Fisher Scientific (Cat no: A-11004)] • 17. DAPI (4′,6-Diamidino-2-Phenylindole, Dihydrochloride) [Thermo Fisher Scientific (Cat no: D1306)] • 18. Fluorescence microscope 2.3.2 General Procedures: 2.3.2.1 General Staining Protocol for Cells Mounted on Coverslips • 1. Wash ×1 in TBS for 5 min at RT. • 2. Block the endogenous hydrogen peroxidase, using the UltraVision Hydrogen Peroxide Block included in the Ultravision Quanto Detection System HRP DAB kit (Cat no: TL-125-QHD) for 10 min at RT and in dark conditions. • 3. Wash ×2 in TBS for 30 sec and ×1 for 5 min at RT. • 4. Wash ×1 in EtOH 50% for 5 min at RT. • 5. Wash ×1 EtOH 70% for 5 min at RT. • 6. […] The staining reaction is monitored under the light microscope until detection of the signal (average time 5-8 min). • 8. […] The staining reaction is monitored under the light microscope until detection of the dark brown signal (average time 30 sec-1 min) at RT 1. • 20. […]"}}}
{"compound": "CC1(COC(=O)CCCC[C@H]2SC[C@H]3NC(=O)N[C@H]32)Nc2cccc3c(/N=N/c4ccc(/N=N/c5ccccc5)c5ccccc45)ccc(c23)N1", "note": "(stereo partly drawn) [LG13, (2-methyl-6-((E)-(4-((E)-phenyldiazenyl)naphthalen-1-yl)diazenyl)-2,3-dihydro-1H-perimidin-2-yl)methyl 5-((3aR,4R,6aS)-2-oxohexahydro-1H-thieno[3,4-d]imidazol-4-yl)pentanoate]", "values": [{"measurement": "relationship between IHC staining and proliferation markers (Ki67 and BrdU incorporation)", "setting": "[1]", "value": "Inverse relationship"}, {"measurement": "detection of senescent cells by flow cytometry", "setting": "senescent cells", "value": "detects robustly senescent cells"}, {"measurement": "relationship between Ki67 expression and compound staining", "setting": "[2]; double staining in cell culture systems and human clinical samples, FIG. 11", "value": "Strict inverse relationship"}, {"measurement": "compound staining of senescent cells with nuclear p16INK4A or p21WAF1/Cip1 expression", "setting": "[2]; irradiated DLFs, induced Saos2-p21 Tet-ON, K-rasV12 mouse lung adenoma, irradiated human breast samples, FIG. 12i", "value": "concurrently positive"}, {"measurement": "relationship between nuclear Ki67 positivity and compound staining", "setting": "[2]; lung sections, mouse bleomycin-induced lung fibrosis, FIG. 12ii", "value": "strict inverse relationship"}]}
